Measurements reported in patent US7932270B2 (Cytokinetics, Inc., priority 2006, dated 2011).

Molecular target: T1, chicken gizzard smooth muscle myosin subfragment-1 chemically crosslinked to cardiac or skeletal actin (Gallus gallus, UniProt P10587)
T1 construct: chicken gizzard smooth muscle myosin subfragment-1; from tissue; host or cells: chicken gizzard
Assay: Smooth muscle myosin ATPase dose response assay (pyruvate kinase/horseradish peroxidase/pyruvate oxidase-coupled, amplex red fluorescence)
Format: biochemical
Conditions: read-out: IC50 Arithmetic Mean
Procedure: In Vitro Model of Dose Dependent Smooth Muscle Myosin ATPase Modulation
Screening assays were performed using a pyruvate kinase and lactate dehydrogenase-coupled ATPase assay containing the following reagents: Potassium PIPES (50 mM), MgCl2 (3 mM), KCl (100 mM), ATP (0.15 mM), DTT (1 mM), BSA (0.1 mg/ml), NADH (0.5 mM), PEP (1.5 mM), pyruvate kinase (4 U/ml), lactate dehydrogenase (8 U/ml), and antifoam (50 ppm) (concentrations expressed are final assay concentrations). The pH was adjusted to 6.80 at 22° C. by addition of potassium hydroxide. Lead optimization assays were performed with a more sensitive pyruvate kinase/horseradish peroxidase/pyruvate oxidase-coupled ATPase assay containing the following reagents: Potassium PIPES (12 mM), MgCl2 (2 mM), KCl (100 mM), ATP (0.15 mM), BSA (0.05 mg/ml), potassium phosphate (2 mM), amplex red (0.1 mM), PEP (0.1 mM), pyruvate kinase (4 U/ml), horseradish peroxidase (0.5 U/ml), pyruvate oxidase (0.5 U/ml), and antifoam (50 ppm) (concentrations expressed are final assay concentrations). The pH was adjusted to 7.00 at 22° C. by addition of potassium hydroxide.
The protein components specific to this assay are chicken gizzard smooth muscle myosin subfragment-1 that has been chemically crosslinked to either cardiac or skeletal actin using an excess of 1-Ethyl-3-[3-dimethylaminopropyl]carbodiimide hydrochloride and N-hydroxysuccinimide. The exact concentration of the crosslinked smooth muscle myosin in the assay is determined empirically, by titration to achieve a desired rate of ATP hydrolysis. The concentration varies between protein preparations due to variations in the fraction of active molecules in each preparation.
Compound dose response assays are performed by first preparing a dilution series of test compound, each with an assay mixture containing potassium PIPES, MgCl2, KCl, ATP, BSA, potassium phosphate, amplex red, PEP, crosslinked smooth muscle actomyosin (subfragment-1), antifoam, and water. The assay is started by adding an equal volume of solution containing potassium Pipes, MgCl2, KCl, BSA, potassium phosphate, pyruvate kinase, horseradish peroxidase, pyruvate oxidase, antifoam, and water. ATP hydrolysis is monitored by measuring the fluorescence of amplex red (excitation at 480 nm, emission at 615 nm). The resulting dose response curve is fit by the 4 parameter equation y=Bottom+((Top-Bottom)/(1+((IC50/X)^Hill))). The IC50 is defined as the concentration at which ATPase activity is midway between the top and bottom of the dose response curve.

T1 sequence (P02607 2-151): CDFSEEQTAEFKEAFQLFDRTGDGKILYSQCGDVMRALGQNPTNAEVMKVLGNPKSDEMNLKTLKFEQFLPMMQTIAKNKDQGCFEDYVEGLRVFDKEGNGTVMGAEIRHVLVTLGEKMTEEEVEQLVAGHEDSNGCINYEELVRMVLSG
T1 sequence (P10587 84-789): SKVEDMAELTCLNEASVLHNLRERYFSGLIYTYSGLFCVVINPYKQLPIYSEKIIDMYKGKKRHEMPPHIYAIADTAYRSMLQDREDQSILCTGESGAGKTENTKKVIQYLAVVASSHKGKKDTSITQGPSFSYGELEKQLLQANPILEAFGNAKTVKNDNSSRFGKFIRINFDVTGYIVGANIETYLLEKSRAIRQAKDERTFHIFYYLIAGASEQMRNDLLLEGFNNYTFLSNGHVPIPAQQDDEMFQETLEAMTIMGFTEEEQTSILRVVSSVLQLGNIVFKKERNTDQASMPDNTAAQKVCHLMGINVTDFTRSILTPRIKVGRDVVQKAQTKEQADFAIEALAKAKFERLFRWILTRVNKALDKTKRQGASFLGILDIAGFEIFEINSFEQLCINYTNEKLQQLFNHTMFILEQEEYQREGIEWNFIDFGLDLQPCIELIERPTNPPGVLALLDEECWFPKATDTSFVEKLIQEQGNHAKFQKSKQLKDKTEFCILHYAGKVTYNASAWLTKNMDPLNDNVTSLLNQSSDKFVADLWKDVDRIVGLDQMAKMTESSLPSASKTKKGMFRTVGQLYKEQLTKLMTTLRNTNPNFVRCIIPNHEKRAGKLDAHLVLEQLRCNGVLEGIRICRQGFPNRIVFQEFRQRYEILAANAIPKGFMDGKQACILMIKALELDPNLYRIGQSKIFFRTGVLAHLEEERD

Structure (SMILES) | IC50
CC(C)[C@H](CNC(=O)c1ccc(-c2ccccc2C#N)nc1NCCc1cccc(F)c1)NC(=O)CN [N-((1R)-1-{[(6-(2-cyanophenyl)-2-{[2-(3-fluorophenyl)ethyl]amino}(3-pyridyl))carbonylamino]methyl}-2-methylpropyl)-2-aminoacetamide] | 0.939 µM
Cn1cc(-c2nc(NCCc3cccc(F)c3)c(C(=O)NCc3cccnc3CN)cc2Cl)cn1 [N-{[2-(aminomethyl)(3-pyridyl)]methyl}(5-chloro-2-{[2-(3-fluorophenyl)ethyl]amino}-6-(1-methylpyrazol-4-yl)(3-pyridyl))carboxamide] | 0.03 µM
NCCCn1ccc(CNC(=O)c2ccc(-c3cn[nH]c3)nc2NCCc2cccc(F)c2)n1 [N-{[1-(3-aminopropyl)pyrazol-3-yl]methyl}(2-{[2-(3-fluorophenyl)ethyl]amino}-6-pyrazol-4-yl(3-pyridyl))carboxamide] | 1.41 µM
CNC(=O)[C@@H](CN)NC(=O)c1ccc(-c2ccccc2C#N)nc1NCCc1cccc(F)c1 [(2R)-3-amino-2-[(6-(2-cyanophenyl)-2-{[2-(3-fluorophenyl)ethyl]amino}(3-pyridyl))carbonylamino]-N-methylpropanamide] | 0.274 µM
COC(=O)N1CCC(CNC(=O)c2ccc(-c3ccccc3C#N)nc2NCCc2cccc(F)c2)CC1 [methyl 4-{[(6-(2-cyanophenyl)-2-{[2-(3-fluorophenyl)ethyl]amino}-3-pyridyl)carbonylamino]methyl}piperidinecarboxylate] | 2.13 µM
O=C(O)c1ccc(-c2ccc(C(=O)NCc3cccnc3)c(NCCc3ccccn3)n2)cc1 [4-{6-[(2-(2-pyridyl)ethyl)amino]-5-[N-(3-pyridylmethyl)carbamoyl]-2-pyridyl}benzoic acid] | 18.3 µM
Cc1n[nH]c(C)c1CCNc1nc(-c2ccccc2)ccc1C(=O)NCc1cccnc1 [(2-{[2-(3,5-dimethylpyrazol-4-yl)ethyl]amino}-6-phenyl(3-pyridyl))-N-(3-pyridylmethyl)carboxamide] | 5.94 µM
O=C(NCc1cccnc1)c1ccc(-c2cc(F)ccc2Cl)nc1NCCc1cccc(F)c1 [(6-(2-chloro-5-fluorophenyl)-2-{[2-(3-fluorophenyl)ethyl]amino}(3-pyridyl))-N-(3-pyridylmethyl)carboxamide] | 1.33 µM
O=C(NCc1cccnc1)c1ccc(-c2ccccc2)nc1NCCC1OCCO1 [{2-[(2-(1,3-dioxolan-2-yl)ethyl)amino]-6-phenyl(3-pyridyl)}-N-(3-pyridylmethyl)carboxamide] | 7.12 µM
Cn1cc(-c2nc(NCCc3cccc(F)c3)c(C(=O)NC[C@H]3CCC(=O)N3CCCNC(=O)OC(C)(C)C)cc2C#N)cn1 [N-[3-((5R)-5-{[(5-cyano-2-{[2-(3-fluorophenyl)ethyl]amino}-6-(1-methylpyrazol-4-yl)(3-pyridyl))carbonylamino]methyl}-2-oxopyrrolidinyl)propyl](tert-butoxy)carboxamide] | 1.15 µM
Cc1csc(-c2ccc(C(=O)NCc3cccnc3)c(NCCc3ccccn3)n2)c1 [{6-(4-methyl(2-thienyl))-2-[(2-(2-pyridyl)ethyl)amino](3-pyridyl)}-N-(3-pyridylmethyl)carboxamide] | 0.344 µM
CC(=O)NCCCNC(=O)c1cc(F)c(-c2cnn(C)c2)nc1NCCc1cccc(F)c1 [N-{3-[(5-fluoro-2-{[2-(3-fluorophenyl)ethyl]amino}-6-(1-methylpyrazol-4-yl)-3-pyridyl)carbonylamino]propyl}acetamide] | 2.62 µM
CC[C@H](CNC(=O)c1cc(F)c(-c2cnn(C)c2)nc1NCCc1cccc(F)c1)C(=O)OC [methyl (2R)-2-{[(5-fluoro-2-{[2-(3-fluorophenyl)ethyl]amino}-6-(1-methylpyrazol-4-yl)(3-pyridyl))carbonylamino]methyl}butanoate] | 0.117 µM
COC(=O)c1cccc(CNC(=O)c2ccc(-c3ccccc3C#N)nc2NCCc2cccc(F)c2)n1 [methyl 6-{[(6-(2-cyanophenyl)-2-{[2-(3-fluorophenyl)ethyl]amino}-3-pyridyl)carbonylamino]methyl}pyridine-2-carboxylate] | 0.064 µM
Cc1ncccc1CNC(=O)c1ccc(-c2ccccc2C#N)nc1NCCc1cccc(F)c1 [(6-(2-cyanophenyl)-2-{[2-(3-fluorophenyl)ethyl]amino}(3-pyridyl))-N-[(2-methyl(3-pyridyl))methyl]carboxamide] | 0.022 µM
Cn1cc(-c2ccc(C(=O)NC[C@H]3CCCN3C(=O)CNC(=O)OC(C)(C)C)c(NCCc3cccc(F)c3)n2)cn1 [N-[((2R)-1-{2-[(tert-butoxy)carbonylamino]acetyl}pyrrolidin-2-yl)methyl](2-{[2-(3-fluorophenyl)ethyl]amino}-6-(1-methylpyrazol-4-yl)(3-pyridyl))carboxamide] | 5.53 µM
O=C(NCc1cccnc1)c1ccc(-c2cnn(CCO)c2)nc1NCCc1cccc(F)c1 [(2-{[2-(3-fluorophenyl)ethyl]amino}-6-[1-(2-hydroxyethyl)pyrazol-4-yl](3-pyridyl))-N-(3-pyridylmethyl)carboxamide] | 0.972 µM
N#Cc1ccccc1-c1ccc(C(=O)NC[C@H]2CCCN2C(=O)CCCN)c(NCCc2cc(F)cc(F)c2)n1 [N-{[(2R)-1-(4-aminobutanoyl)pyrrolidin-2-yl]methyl}(2-{[2-(3,5-difluorophenyl)ethyl]amino}-6-(2-cyanophenyl)(3-pyridyl))carboxamide] | 0.023 µM
NCCc1cccc(CNC(=O)c2ccc(-c3ccccc3)nc2NCCc2cccc(F)c2)n1 [N-{[6-(2-aminoethyl)(2-pyridyl)]methyl}(2-{[2-(3-fluorophenyl)ethyl]amino}-6-phenyl(3-pyridyl))carboxamide] | 0.024 µM
CC(C)(C)OC(=O)NCc1ncccc1CNC(=O)c1cc(F)c(-c2cn[nH]c2)nc1NCCc1cccc(F)c1 [N-[(2-{[(tert-butoxy)carbonylamino]methyl}(3-pyridyl))methyl](5-fluoro-2-{[2-(3-fluorophenyl)ethyl]amino}-6-pyrazol-4-yl(3-pyridyl))carboxamide] | 0.488 µM
O=C(NCc1cccnc1NCCO)c1ccc(-c2cn[nH]c2)nc1NCCc1cccc(F)c1 [(2-{[2-(3-fluorophenyl)ethyl]amino}-6-pyrazol-4-yl(3-pyridyl))-N-({2-[(2-hydroxyethyl)amino](3-pyridyl)}methyl)carboxamide] | 0.065 µM
CNC(=O)[C@H](CN)NC(=O)c1ccc(-c2ccccc2C#N)nc1NCCc1cccc(F)c1 [(2S)-3-amino-2-[(6-(2-cyanophenyl)-2-{[2-(3-fluorophenyl)ethyl]amino}(3-pyridyl))carbonylamino]-N-methylpropanamide] | 3.45 µM
N#Cc1ccccc1-c1ccc(C(=O)NCC2CCCNC2=O)c(NCCc2cccc(F)c2)n1 (centres unmarked) [(6-(2-cyanophenyl)-2-{[2-(3-fluorophenyl)ethyl]amino}(3-pyridyl))-N-[(2-oxo(3-piperidyl))methyl]carboxamide] | 0.014 µM
CC(C)(C)OC(=O)N[C@@H](CO)C(=O)N1CCC[C@@H]1CNC(=O)c1cc(F)c(-c2cn[nH]c2)nc1NCCc1cccc(F)c1 [N-[((2R)-1-{(2S)-2-[(tert-butoxy)carbonylamino]-3-hydroxypropanoyl}pyrrolidin-2-yl)methyl](5-fluoro-2-{[2-(3-fluorophenyl)ethyl]amino}-6-pyrazol-4-yl(3-pyridyl))carboxamide] | 1 µM
N#Cc1ccccc1-c1ccc(C(=O)NCc2ccc(F)c(F)c2)c(NCCc2cccc(F)c2)n1 [N-[(3,4-difluorophenyl)methyl](6-(2-cyanophenyl)-2-{[2-(3-fluorophenyl)ethyl]amino}(3-pyridyl))carboxamide] | 1.98 µM
N#Cc1ccccc1-c1ccc(C(=O)NCc2ccc(Cl)nc2)c(NCCc2cccc(F)c2)n1 [N-[(6-chloro(3-pyridyl))methyl](6-(2-cyanophenyl)-2-{[2-(3-fluorophenyl)ethyl]amino}(3-pyridyl))carboxamide] | 1.79 µM
N#Cc1ccccc1-c1ccc(C(=O)NCC2CCCN2CCCN)c(NCCc2cccc(F)c2)n1 (centres unmarked) | 3.5 µM
O=C(NC[C@H]1CCCN1C(=O)CO)c1ccc(-c2cn[nH]c2)nc1NCCc1cccc(F)c1 [N-{[(2R)-1-(2-hydroxyacetyl)pyrrolidin-2-yl]methyl}(2-{[2-(3-fluorophenyl)ethyl]amino}-6-pyrazol-4-yl(3-pyridyl))carboxamide] | 1.19 µM
O=C(NCc1cccnc1)c1ccc(-c2ccccc2O)nc1NCCc1ccccn1 [{6-(2-hydroxyphenyl)-2-[(2-(2-pyridyl)ethyl)amino](3-pyridyl)}-N-(3-pyridylmethyl)carboxamide] | 2.17 µM
